Results taken from ChEMBL document CHEMBL3751764, “Synthesis and in vitro antiproliferative activity of novel pyrazolo[3,4-d]pyrimidine derivatives” (Medchemcomm, 2015).
Active and inactive are the calls of the source. The calls are words filed in the database; no cut-off is given here.

Columns and labels:
[1] = target: Epidermal growth factor receptor (Homo sapiens) (UniProt P00533); assay: Inhibition of human EGFR at 10 uM after 20 to 40 mins by liquid scintillation counting analysis in presence of […]
MDA-MB-231 = assay: Cytotoxicity against human MDA-MB-231 cells after 72 hrs by SRB assay; type: functional; conditions: MDA-MB-231, 72 h
[2] = Cytotoxicity against human SF295 cells after 72 hrs by SRB assay; type: functional; conditions: SF-295, 72 h
[3] = Cytotoxicity against human Hs 578T cells after 72 hrs by SRB assay; type: functional
[4] = Cytotoxicity against human HOP92 cells after 72 hrs by SRB assay; type: functional; conditions: HOP-92, 72 h
ACHN = assay: Cytotoxicity against human ACHN cells after 72 hrs by SRB assay; type: functional
NCI-H522 = assay: Cytotoxicity against human NCI-H522 cells after 72 hrs by SRB assay; type: functional; conditions: NCI-H522, 72 h
[5] = Cytotoxicity against human IGROV1 cells after 72 hrs by SRB assay; type: functional; conditions: IGROV-1, 72 h
NCI-H23 = assay: Cytotoxicity against human NCI-H23 cells after 72 hrs by SRB assay; type: functional; conditions: NCI-H23, 72 h
[6] = Cytotoxicity against human DU145 cells after 72 hrs by SRB assay; type: functional; conditions: DU-145, 72 h
KM12 = assay: Cytotoxicity against human KM12 cells after 72 hrs by SRB assay; type: functional; conditions: KM12, 72 h
NCI-H322M = assay: Cytotoxicity against human NCI-H322M cells after 72 hrs by SRB assay; type: functional
[7] = Cytotoxicity against human Caki1 cells after 72 hrs by SRB assay; type: functional; conditions: CAKI-1, 72 h
T47D = assay: Cytotoxicity against human T47D cells after 72 hrs by SRB assay; type: functional
[8] = Cytotoxicity against human HCT116 cells after 72 hrs by SRB assay; type: functional; conditions: HCT-116, 72 h
A498 = assay: Cytotoxicity against human A498 cells after 72 hrs by SRB assay; type: functional; conditions: A498, 72 h
[9] = Cytotoxicity against human HOP62 cells after 72 hrs by SRB assay; type: functional; conditions: HOP-62, 72 h
M14 = assay: Cytotoxicity against human M14 cells after 72 hrs by SRB assay; type: functional; conditions: M14, 72 h
[10] = Cytotoxicity against human SF268 cells after 72 hrs by SRB assay; type: functional; conditions: SF-268, 72 h
786-0 = assay: Cytotoxicity against human 786-0 cells after 72 hrs by SRB assay; type: functional; conditions: 786-0, 72 h
A549 [11] = assay: Upregulation of p27kip1 expression in human A549 cells by Western blotting analysis; type: functional
[12] = Cytotoxicity against human SKOV3 cells after 72 hrs by SRB assay; type: functional; conditions: SK-OV-3, 72 h
SN12C = assay: Cytotoxicity against human SN12C cells after 72 hrs by SRB assay; type: functional
[13] = Cytotoxicity against human SNB75 cells after 72 hrs by SRB assay; type: functional; conditions: SNB-75, 72 h
[14] = Cytotoxicity against human MOLT4 cells after 72 hrs by SRB assay; type: functional; conditions: MOLT-4, 72 h
[15] = Cytotoxicity against human HCT15 cells after 72 hrs by SRB assay; type: functional; conditions: HCT-15, 72 h
MDA-MB-468 = assay: Cytotoxicity against human MDA-MB-468 cells after 72 hrs by SRB assay; type: functional; conditions: MDA-MB-468, 72 h
MDA-MB-435 = assay: Cytotoxicity against human MDA-MB-435 cells after 72 hrs by SRB assay; type: functional; conditions: MDA-MB-435, 72 h
[16] = Cytotoxicity against human SNB19 cells after 72 hrs by SRB assay; type: functional; conditions: SNB-19, 72 h
SR = assay: Cytotoxicity against human SR cells after 72 hrs by SRB assay; type: functional
NCI-H460 = assay: Cytotoxicity against human NCI-H460 cells after 72 hrs by SRB assay; type: functional; conditions: NCI-H460, 72 h
[17] = Cytotoxicity against human UO31 cells after 72 hrs by SRB assay; type: functional; conditions: UO-31, 72 h
[18] = Cytotoxicity against human BT549 cells after 72 hrs by SRB assay; type: functional; conditions: BT-549, 72 h
A549 [19] = assay: Cytotoxicity against human A549 cells after 72 hrs by SRB assay; type: functional, cell-based; conditions: A549, 72 h
[20] = Cytotoxicity against human UACC62 cells after 72 hrs by SRB assay; type: functional; conditions: UACC-62, 72 h
[21] = Cytotoxicity against human PC3 cells after 72 hrs by SRB assay; type: functional; conditions: PC-3, 72 h
[22] = read-out: LC50 (the source's name)

Chain of Epidermal growth factor receptor (Homo sapiens) (P00533 whole entry): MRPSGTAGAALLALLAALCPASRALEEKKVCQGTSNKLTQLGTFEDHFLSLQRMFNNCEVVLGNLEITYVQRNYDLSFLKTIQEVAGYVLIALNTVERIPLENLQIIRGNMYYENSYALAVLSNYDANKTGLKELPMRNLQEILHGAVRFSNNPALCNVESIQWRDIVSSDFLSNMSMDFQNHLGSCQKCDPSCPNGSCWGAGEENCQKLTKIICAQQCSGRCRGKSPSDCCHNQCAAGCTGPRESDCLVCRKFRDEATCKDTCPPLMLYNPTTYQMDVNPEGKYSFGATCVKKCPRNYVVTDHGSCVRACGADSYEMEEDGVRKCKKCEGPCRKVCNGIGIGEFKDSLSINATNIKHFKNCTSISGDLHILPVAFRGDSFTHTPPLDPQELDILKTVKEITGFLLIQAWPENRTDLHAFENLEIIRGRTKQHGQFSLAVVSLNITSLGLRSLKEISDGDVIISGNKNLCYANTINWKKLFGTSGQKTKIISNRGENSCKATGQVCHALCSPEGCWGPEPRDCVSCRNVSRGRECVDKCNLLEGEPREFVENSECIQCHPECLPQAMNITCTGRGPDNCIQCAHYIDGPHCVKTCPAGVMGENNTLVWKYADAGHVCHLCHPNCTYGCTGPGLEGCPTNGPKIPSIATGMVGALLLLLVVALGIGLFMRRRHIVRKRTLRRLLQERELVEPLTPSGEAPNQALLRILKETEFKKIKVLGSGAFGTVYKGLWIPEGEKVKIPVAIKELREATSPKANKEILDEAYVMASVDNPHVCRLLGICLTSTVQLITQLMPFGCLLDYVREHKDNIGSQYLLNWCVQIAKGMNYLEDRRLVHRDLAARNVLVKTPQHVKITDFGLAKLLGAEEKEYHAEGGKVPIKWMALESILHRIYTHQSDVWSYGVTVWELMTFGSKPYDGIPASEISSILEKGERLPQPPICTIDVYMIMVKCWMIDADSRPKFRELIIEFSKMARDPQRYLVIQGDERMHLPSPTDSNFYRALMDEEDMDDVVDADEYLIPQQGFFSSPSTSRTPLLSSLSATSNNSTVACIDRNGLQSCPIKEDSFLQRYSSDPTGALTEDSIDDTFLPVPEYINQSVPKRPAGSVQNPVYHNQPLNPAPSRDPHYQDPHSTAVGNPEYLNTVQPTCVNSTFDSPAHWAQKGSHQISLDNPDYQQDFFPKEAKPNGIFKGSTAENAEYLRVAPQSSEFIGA

## Cc1ccc2nc(Nc3ncnc4c3cnn4-c3ccccc3)sc2c1
[1]
  inhibition: inactive

## O=C(NC1CCCCC1)c1ccc(Nc2ncnc3c2cnn3-c2ccccc2)cc1
MDA-MB-231
  GI50: 5.09 µM
  TGI: 21.9 µM
MDA-MB-231; [22]
  CC50: 80.6 µM
[2]
  GI50: 2.98 µM
  TGI: 13.3 µM
[2]; [22]
  CC50: 43.1 µM
[3]
  GI50: 3.37 µM
  TGI: 34.2 µM
[3]; [22]
  CC50: > 100 µM
[4]
  GI50: 2.53 µM
  TGI: 8.29 µM
[4]; [22]
  CC50: 86.6 µM
ACHN
  GI50: 3.32 µM
  TGI: 11 µM
ACHN; [22]
  CC50: 37 µM
NCI-H522
  GI50: 6.4 µM
  TGI: > 100 µM
NCI-H522; [22]
  CC50: > 100 µM
[5]
  GI50: 14.4 µM
  TGI: 65.9 µM
[5]; [22]
  CC50: > 100 µM
NCI-H23
  GI50: 10.9 µM
  TGI: 89.9 µM
NCI-H23; [22]
  CC50: > 100 µM
[6]
  GI50: 10.6 µM
  TGI: 48.1 µM
[6]; [22]
  CC50: > 100 µM
KM12
  GI50: 57.8 µM
  TGI: > 100 µM
KM12; [22]
  CC50: > 100 µM
NCI-H322M
  GI50: 15.8 µM
  TGI: > 100 µM
NCI-H322M; [22]
  CC50: > 100 µM
[7]
  GI50: 14 µM
  TGI: > 100 µM
[7]; [22]
  CC50: > 100 µM
T47D
  GI50: 20.2 µM
  TGI: > 100 µM
T47D; [22]
  CC50: > 100 µM
[8]
  GI50: 4.01 µM
  TGI: > 100 µM
[8]; [22]
  CC50: > 100 µM
A498
  GI50: 3.83 µM
  TGI: 39.4 µM
A498; [22]
  CC50: > 100 µM
[9]
  GI50: 2.62 µM
  TGI: 8.78 µM
[9]; [22]
  CC50: 37.3 µM
M14
  GI50: 18.3 µM
  TGI: > 100 µM
M14; [22]
  CC50: > 100 µM
[10]
  GI50: 5.85 µM
  TGI: > 100 µM
[10]; [22]
  CC50: > 100 µM
786-0
  GI50: 3.47 µM
  TGI: 18.3 µM
786-0; [22]
  CC50: 65.5 µM
A549 [11]
  fold change (FC): 3
[12]
  GI50: 2.95 µM
  TGI: 8.7 µM
[12]; [22]
  CC50: 51.1 µM
SN12C
  GI50: 8.26 µM
  TGI: > 100 µM
SN12C; [22]
  CC50: > 100 µM
[13]
  GI50: 1.71 µM
  TGI: 5.4 µM
[13]; [22]
  CC50: 35.9 µM
[14]
  GI50: 75.6 µM
  TGI: > 100 µM
[14]; [22]
  CC50: > 100 µM
[15]
  GI50: 99.3 µM
  TGI: > 100 µM
[15]; [22]
  CC50: > 100 µM
MDA-MB-468
  GI50: 21.7 µM
  TGI: > 100 µM
MDA-MB-468; [22]
  CC50: > 100 µM
MDA-MB-435
  GI50: 67.8 µM
  TGI: > 100 µM
MDA-MB-435; [22]
  CC50: > 100 µM
[16]
  GI50: 3.82 µM
  TGI: 18.9 µM
[16]; [22]
  CC50: > 100 µM
SR
  GI50: 11.6 µM
  TGI: 49.1 µM
SR; [22]
  CC50: > 100 µM
NCI-H460
  GI50: 7.09 µM
  TGI: > 100 µM
NCI-H460; [22]
  CC50: > 100 µM
[17]
  GI50: 23.9 µM
  TGI: > 100 µM
[17]; [22]
  CC50: > 100 µM
[18]
  GI50: 5.69 µM
  TGI: 26.4 µM
[18]; [22]
  CC50: 91.9 µM
A549 [19]
  GI50: 4.38 µM
  IC50: 66.6 µM
  LC50: > 100 µM
  TGI: 51.3 µM
[20]
  GI50: 17.4 µM
  TGI: > 100 µM
[20]; [22]
  CC50: > 100 µM
[21]
  GI50: 11.8 µM
  TGI: 44.8 µM
[21]; [22]
  CC50: > 100 µM
